# Reference: paper PMC4368200, “Triclabendazole Sulfoxide Causes Stage-Dependent Embryolethality in Zebrafish and Mouse In Vitro” (PLoS ONE, 2015)
# Where “and” joins values, the source holds several entries; their conditions need not be identical. Equal entries are not always repeated. Marks after values point to notes of the source that are not given here.
# How the values were obtained:
# [1] = reviewed and transformed to μM by 13; cited from earlier work
# zebrafish embryos [2] = settings: ref 19, 20; cited from earlier work
# rat whole embryo culture = system: rat whole embryo culture; design: method as in PMID 22652462; settings: ref 16; cited from earlier work
# zebrafish embryos [3] = assay: Zebrafish embryo test (ZFET); assay type: in vivo, Danio rerio; settings: for Dysmorphogenic embryos / Morphological score: 50 hpf
# Experimental: The day before the test, adult male and female zebrafish were transferred (1:1) to breeding tanks (Aquaneering, San Diego, California). Artificial plants and marbles were used as spawning substrate. Spawning and fertilization took place within 30 min after the onset of light in the morning. Eggs were collected and extensively cleaned with ISO-standard 7346 water diluted 1:5 using deionized water. Fertilized eggs were selected under a dissection stereomicroscope (Motic SMZ168, Motic China group, LTD., China). The eggs presenting overt anomalies like asymmetries, formation of vesicles or damaged membranes were discarded.
# Exposure and evaluation of eggs was performed as described before with slight variations. At 2 hours post-fertilization (hpf) fertilized eggs were selected and transferred to 6-well plates (Greiner Bio-one, Germany). Ten embryos were randomly distributed into wells and filled with 5 mL of freshly prepared test solutions. TCBZ, TCBZSO, ABZ and ABZSO were dissolved in DMSO and subsequently diluted in 0.3x Danieau’s buffer to a final DMSO concentration of 0.05% (v/v). Embryos were incubated at 26 ± 1°C with a dark-light cycle of 10–14 h for 48 h. Embryolethality was determined at 8 hpf on the basis of egg coagulation, at 26 hpf by the absence of tail detachment or somites formation, and at 50 hpf by the absence of heartbeat. Developmental and teratogenic effects were assessed at 50 hpf by the total morphological score described in [32].
# The working concentrations for ZFET experiments were 0.1 μM, 0.5 μM, 1 μM, 2.5 μM and 5 μM for TCBZ studies and 0.5 μM, 1 μM, 2.5 μM, 5 μM, 10 μM and 50 μM for TCBZSO. The experiments with ABZ were performed including concentrations of 0.025 μM, 0.05 μM, 0.1 μM, 0.3 μM and 0.5 μM and for ABZSO they included 1 μM, 6 μM, 12 μM, 25 μM and 50 μM.
# [4] = system: rat embryos explanted at GD 9.5; assay: Postimplantation whole embryo culture (postWEC); design: species or system Sprague Dawley rats; key to Yolk sac circulation (median): 1 = few/abnormal vessels, 2 = delayed, 3 = complete vascularization; key to Morphological score: sum of structure scores; higher = more advanced differentiation; settings: for Crown-rump length / Dysmorphogenic embryos / Morphological score / Somites number / Yolk sac circulation (median): 48 h
# Experimental: Nulliparous female rats, which were checked to be in the oestrus phase of the oestrous cycle, were housed with adult males (1:1) for 4 h, considering 2 h of light and 2 h of darkness. Mating was confirmed by the presence of sperm in vaginal smear, and the following 24 h were considered as gestational day 0 (GD 0).
# Rat embryos were explanted and evaluated as described before with some variations. Briefly, embryos were explanted at GD 9.5 under sterile conditions. Two embryos were incorporated in flasks filled with 3.5 mL of culture medium which contained 20% of rat serum and 80% of serum mixture (Biochrom AG; Berlin, Germany). TCBZ, TCBZSO, ABZ and ABZSO were dissolved in dimethyl sulfoxide (DMSO; Sigma Aldrich Spain) and added to the culture medium to a final DMSO concentration of 0.1%. Culture flasks were oxygenated at the beginning of the culture with a gas mixture containing 12% O2 and after 38 h with a gas mixture containing 50% O2. Embryos were cultured at a temperature of 38°C, under rotation at a speed of 25 rpm (Noria R, Ovan Spain) for 48 h. After this period, embryos presenting yolk sac circulation and heartbeat were considered alive and were selected for further evaluation. The yolk sac circulation was evaluated according to the level of formation of blood vessels, giving a score of 1 in the cases in which few vessels were observed or the vascularization was abnormal, a score of 2 when a delay in vascularization was observed and 3 for complete vascularization, as previously described in [35]. Growth evaluation was assessed by crown-rump length and differentiation was evaluated by counting the number of somites and the morphological score. This score is the sum of the scores given to several embryonic structures depending on their differentiation stage, corresponding higher values with higher stages of differentiation. Furthermore, the percentage of dysmorphogenesis was calculated according to [36].
# For the postWEC experiments, the selected concentrations were 140 μM, 278 μM and 556 μM for TCBZ and 267 μM, 666 μM and 932 μM for TCBZSO. The tested concentrations for ABZ analysis were 0.4 μM, 1.1 μM and 1.9 μM and for ABZSO were 3.4 μM, 9 μM, 12 μM, 14 μM and 16 μM.
smiles,measurement,setting,value
"CCCSc1ccc2nc(NC(=O)OC)[nH]c2c1 [ABZ, methyl-5-(propylthio)-2-benzimidazole-carbamate]",Plasma concentrations at teratogenic doses,[1],0.94 ([47]; reviewed and transformed to μM by [13])
same,"ZFET LOAEC, in vitro literature",zebrafish embryos [2],"0.3 [19, 20] μM"
same,"postWEC LOAEC, in vitro literature",rat whole embryo culture,3.7 [16] μM
same,Lethality,"zebrafish embryos [3]; 0.025 μM, 2-50 hpf",7%
same,Dysmorphogenic embryos,zebrafish embryos [3]; 0.025 μM,0%
same,Morphological score,zebrafish embryos [3]; 0.025 μM,36.0 ± 0.0
same,Frequency of dysmorphogenesis: Cardiac oedema,zebrafish embryos [3]; 0.05 µM,3.3%
same,Lethality,"zebrafish embryos [3]; 0.05 μM, 2-50 hpf",0%
same,Dysmorphogenic embryos,zebrafish embryos [3]; 0.05 μM,3.3%
same,Morphological score,zebrafish embryos [3]; 0.05 μM,35.9 ± 0.2
same,Frequency of dysmorphogenesis: Cardiac oedema,zebrafish embryos [3]; 0.1 µM,2.5%
same,Lethality,"zebrafish embryos [3]; 0.1 μM, 2-50 hpf",0%
same,Dysmorphogenic embryos,zebrafish embryos [3]; 0.1 μM,2.5%
same,Morphological score,zebrafish embryos [3]; 0.1 μM,35.9 ± 0.2
same,Frequency of dysmorphogenesis: Cardiac oedema,zebrafish embryos [3]; 0.3 µM,72%
same,Frequency of dysmorphogenesis: Developmental delay,zebrafish embryos [3]; 0.3 µM,72%
same,Frequency of dysmorphogenesis: Eye pigmentation,zebrafish embryos [3]; 0.3 µM,16%
same,Frequency of dysmorphogenesis: Head-body pigmentation,zebrafish embryos [3]; 0.3 µM,40%
same,Frequency of dysmorphogenesis: Movement,zebrafish embryos [3]; 0.3 µM,32%
same,Lethality,"zebrafish embryos [3]; 0.3 μM, 2-50 hpf",17 ^* %
same,Dysmorphogenic embryos,zebrafish embryos [3]; 0.3 μM,72 ^* %
same,Morphological score,zebrafish embryos [3]; 0.3 μM,25.5 ± 2.1
same,Lethality,"zebrafish embryos [3]; 0.5 μM, 2-50 hpf",100% and 100 ^* %
same,ZFET LOAEC dysmorphogenesis,zebrafish embryos [3]; 2-50 hpf,0.3 µM
same,ZFET LOAEC lethality,zebrafish embryos [3]; 2-50 hpf,0.3 µM
same,Crown-rump length,[4]; 0.4 μM,3.5 ± 0.1 mm
same,Dysmorphogenic embryos,[4]; 0.4 μM,0%
same,Morphological score,[4]; 0.4 μM,38.9 ± 0.6
same,Somites number,[4]; 0.4 μM,25.8 ± 1.9
same,Yolk sac circulation (median),[4]; 0.4 μM,3.0
same,Frequency of dysmorphogenesis: Branchial bars,[4]; 1.1 µM,50%
same,Frequency of dysmorphogenesis: Heart,[4]; 1.1 µM,12.5%
same,Frequency of dysmorphogenesis: Subcutaneous blisters,[4]; 1.1 µM,50%
same,Frequency of dysmorphogenesis: Yolk sac,[4]; 1.1 µM,25%
same,Crown-rump length,[4]; 1.1 μM,3.2 ± 0.2 mm
same,Dysmorphogenic embryos,[4]; 1.1 μM,50 ^* %
same,Morphological score,[4]; 1.1 μM,30.8 ± 2.1
same,Somites number,[4]; 1.1 μM,23.9 ± 1.1
same,Yolk sac circulation (median),[4]; 1.1 μM,3.0
same,Frequency of dysmorphogenesis: Branchial bars,[4]; 1.9 µM,100%
same,Frequency of dysmorphogenesis: Caudal part,[4]; 1.9 µM,37.5%
same,Frequency of dysmorphogenesis: Flexion,[4]; 1.9 µM,12.5%
same,Frequency of dysmorphogenesis: Head,[4]; 1.9 µM,62.5%
same,Frequency of dysmorphogenesis: Heart,[4]; 1.9 µM,37.5%
same,Frequency of dysmorphogenesis: Subcutaneous blisters,[4]; 1.9 µM,37.5%
same,Frequency of dysmorphogenesis: Yolk sac,[4]; 1.9 µM,75%
same,Crown-rump length,[4]; 1.9 μM,2.9 ± 0.4 mm
same,Dysmorphogenic embryos,[4]; 1.9 μM,100 ^* %
same,Morphological score,[4]; 1.9 μM,26.4 ± 5.2
same,Somites number,[4]; 1.9 μM,21.9 ± 4.5
same,Yolk sac circulation (median),[4]; 1.9 μM,1.0 ^*
same,postWEC LOAEC,"[4]; GD 9.5-11.5, 48 h",1.1 µM
